Measurements: publication PMC11110755, “Structure-based virtual screening of unbiased and RNA-focused libraries to identify new ligands for the HCV IRES model system” (RSC Medicinal Chemistry, 2024)
Values after ≈ are worked out from the molar mass of the structure shown. Values joined by “and” are separate entries in the source; they are usually repeats but may differ in a detail not shown here. Equal values may be shown once. “Also recorded” adds a separate entry of the source. Read-outs that look alike come from different tables or passages of the source.

Tests used:
HCV IRES subdomain IIa [1] = test: FRET assay monitoring ligand-induced conformational change of Cy3/Cy5-labelled HCV IRES subdomain IIa; format: biochemical, hepatitis C virus; conditions: for FRET-signal change / conformational change of HCV IRES subdomain IIa, in words: pre-screening 1000, 100, 10 and 0.001 μM
Protocol: For the FRET assay, a two stranded HCV IRES subdomain IIa carrying a 5′-Cy3-label on one and 5′-Cy5-label on the other strand (Cy3-[…], Cy5-[…], Biomers.net GmbH) was used as described previously.[22,53] All samples containing labelled RNA were treated under light protection. FRET experiments were performed on a Tecan Spark 10 M plate reader (excitation/emission: 480/670 nm) using black half area 96 well microplates (Greiner Bio-One), based on a protocol by Zhou et al.[53] The 5′-Cy3- and 5′-Cy5-labelled single strands were annealed by heating to 75 °C in FRET buffer (10 mM HEPES pH 7.0, 2 mM MgCl2) and cooled down to room temperature for at least 20 min. The 5′-Cy3/Cy5-labelled RNA was diluted to 100 nM in FRET buffer and supplemented with compounds 8–28 in appropriate concentrations. Compounds 4 and 5 were used as positive controls. For the initial screening, compounds were added in final concentrations of 1000, 100, 10 and 0.001 μM (Fig. S4 ^†). If a concentration dependent reduction of the FRET signal (Cy5-emission) was observed, EC50-values were determined using ligand concentrations from 1 mM to 100 nM in 3.16-fold (semi-logarithmic) dilution series. For those compounds, the Cy3 emission was measured at 535 nm to confirm a conformational change dependent reduction in the Cy5 emission signal via Cy3 emission increase (Fig. S7 ^†). For each experiment, one DMSO negative control was carried out. The final DMSO concentration was always 2%. Excitation and emission spectra were recorded for the Cy3/Cy5-labelled RNA (100 nM) in FRET buffer to confirm excitation (Cy3) and emission (Cy5) wavelength as well as for each compound (1 μM) in FRET buffer to exclude any interference with the cyanine dyes. All measurements were performed at least as triplicates for screening and EC50-determination.
(§1) FRET experiments were analyzed using GraphPad Prism (version 8.0.1., GraphPad Software, Boston, Massachusetts USA, https://www.graphpad.com).

[2] = system: HCV IRES subdomain IIa in presence of total RNA from yeast; test: Selectivity FRET assay in presence of competing total RNA from yeast; format: biochemical, hepatitis C virus; conditions: 1:5 m/m HCV IRES : total RNA from yeast
Protocol: For the HCV IRES-binding compounds (4, 5, 8–13, 8a–8c), a selectivity FRET assay in presence of total RNA from yeast (Roche) was performed. The ratio of the FRET HCV IRES subdomain IIa construct and the total RNA was set to 1 : 5 m/m. The preparation of the labelled RNA and the compounds was the same as in the binding assay. The yeast RNA was diluted to 7.88 mg L^−1 and supplemented with 100 nM HCV IRES and appropriate concentrations of the compounds (3.16-fold dilution series) in FRET buffer (Fig. S10 ^†). For each compound, triplicate measurements were performed. For each experiment, one DMSO negative control was carried out. The final DMSO concentration was always 2%.
as §1

HCV IRES subdomain IIa [3] = biological target: HCV IRES subdomain IIa; set-up: method as in PMID 16279767; conditions: previously reported; read-out: KD (MS assay); cited from earlier work
HCV IRES subdomain IIa [4] = system: HCV IRES subdomain IIa; set-up: method as in PMID 16279767, PMID 24930829, PMID 27775338; conditions: previously reported, Fig. 1; read-out: EC50 (FRET assay); cited from earlier work
HCV IRES subdomain IIa [5] = system: HCV IRES subdomain IIa; set-up: method as in PMID 25349403; conditions: previous study, cited from earlier work
HCV IRES subdomain IIa [6] = format: binding, hepatitis C virus; conditions: for Kd: read-out: MST KD
Protocol: For the MST assay, the same sequence of the two stranded HCV IRES subdomain IIa as for the FRET assay was used. One strand was 5′-Cy5-labelled and the other strand was unmodified ([…], Cy5-[…], Biomers.net GmbH). All samples containing labelled RNA were treated under light protection. MST experiments were performed on a Monolith NT.115 from NanoTemper Technologies using standard uncoated capillaries. The strands were annealed by heating to 75 °C in MST buffer (10 mM HEPES pH 7.0, 2 mM MgCl2) and cooled down to room temperature for at least 20 min. The 5′-Cy5-labelled HCV IRES domain IIa RNA was diluted to 30 nM in MST buffer and supplemented with compounds 8–25 in appropriate concentrations. Compounds 4 and 5 were used as positive controls. For the initial screening, compounds were added to final concentrations of 1000 (or 316 if limited by solubility), 100, 10 and 0.001 μM (Fig. S5 ^†). If a concentration-dependent shift of thermophoresis was observed, KD-values were determined using concentrations ranging from 1 mM (if permitted by solubility, otherwise starting from 316 or 100 μM) to 0.01 μM in a 3.16-fold (semi-logarithmic) dilution series. For each experiment, one DMSO negative control was carried out. Final DMSO concentration was always 2%.
(§2) Off-target counter screens by MST were performed as described previously.[31,84] Briefly, the 5′-Cy5-labelled Tte preQ1-Riboswitch aptamer domain (Biomers.net GmbH) was heated to 75 °C for 5 min, cooled down to room temperature for at least 20 min and then diluted to 20 nM in MST buffer (50 mM Tris-HCl pH 7.5, 100 mM KCl, 25 mM MgCl2) and supplemented with compounds 4, 5, 8–13, 18, 21, 22 and 26 to final concentrations of 1000, 100, 10 and 0.001 μM. PreQ1 was used as a positive control. The 5′-Cy5-labelled B. angulatum SAM VI-Riboswitch aptamer domain (Eurofins Genomics GmbH) was heated to 75 °C for 5 min, cooled down to room temperature for at least 20 min and then diluted to 20 nM in MST buffer (50 mM Tris-HCl pH 7.5, 100 mM KCl, 25 mM MgCl2) and supplemented with compounds 5, 9 and 28 to final concentrations of 1000, 100, 10 and 0.001 μM. SAM was used as a positive control. For each experiment, one DMSO negative control was carried out. The final DMSO concentration was 2%. All measurements were performed at least as duplicates for pre-screening and triplicates for KD-determination. MST measurements were analyzed from signals after 18 s laser on-time using the MO.Affinity Analysis software (version 2.3) and exported for statistical analysis and plotting in GraphPad Prism (version 8.0.1., GraphPad Software, Boston, Massachusetts USA, https://www.graphpad.com).

[7] = system: Tte preQ1-Riboswitch aptamer domain; test: MST off-target counter screen, preQ1-riboswitch aptamer domain; format: binding, Thermoanaerobacter tengcongensis; conditions: 1000, 100, 10 and 0.001 μM
Protocol: as §2

HCV IRES = system: HCV IRES; set-up: method as in PMID 10866369; conditions: previously reported, Fig. 1; cited from earlier work
[8] = 100 nM Cy3/Cy5-labelled RNA, 10 mM HEPES pH 7.0, 2 mM MgCl2, 2% DMSO, ≥ = lower limit
[9] = 30 nM Cy5-labelled RNA, 10 mM HEPES pH 7.0, 2 mM MgCl2, 2% DMSO, ≥ = no saturation, n.b. no binding observed

## CN(C)CCCn1c(N)nc2ccccc21 [Compound 4]
HCV IRES subdomain IIa [1]; [8]
  EC50: 0.078 ± 0.035 mM
[2]
  FRET result in presence of competing total RNA, in words: lower EC50-values
HCV IRES subdomain IIa [3]
  Kd: 100 µM and ≥ 100 µM
HCV IRES subdomain IIa [4]
  EC50: 50 µM

## Nc1nc2[nH]cnc2c(=O)[nH]1 [G]
HCV IRES subdomain IIa [5]
  HCV IRES subdomain IIa binding, in words: weak binding behavior
HCV IRES subdomain IIa [5]; read-out: EC50 HCV IRES subdomain IIa binding
  EC50: 1050 µM

## NC1=NC(c2cn[nH]c2-c2cccc(O)c2)n2c(nc3ccccc32)N1 (centres unmarked) [Compound 13]
HCV IRES subdomain IIa [1]; [8]
  EC50: ≥ 1 mM
HCV IRES subdomain IIa [1]; as printed in text in mM
  EC50: ≥ 1 mM
HCV IRES subdomain IIa [6]; [9]
  Kd: ≥ 100 µM

## N=C(N)NCCC[C@H](N)C(=O)O [arginine]
HCV IRES subdomain IIa [5]
  HCV IRES subdomain IIa binding, in words: no binding

## Nc1cc(-c2ccc3[nH]ncc3c2)c2cc[nH]c2n1 [Compound 12]
HCV IRES subdomain IIa [1]; [8]
  EC50: ≥ 0.3 mM
HCV IRES subdomain IIa [6]; [9]
  Kd: ≥ 50 µM

## N=C(N)NC(=O)c1nc(Cl)c(N)nc1N [Compound 26, amiloride, reference compound]
HCV IRES subdomain IIa [1]; [8]
  EC50: ≥ 0.5 mM
HCV IRES subdomain IIa [6]; [9]
  Kd: ≥ 100 µM
HCV IRES subdomain IIa [6]; pre-screening 1000 (or 316), 100, 10 and 0.001 μM
  binding to HCV IRES subdomain IIa (MST-shift), in words: some weak binding
[7]
  preQ1-riboswitch binding / selectivity (MST-shift), in words: selectivity over the preQ1-riboswitch

## NC(=O)c1c[nH]c2ccc(NC(=O)CCc3cc4n(n3)CCCNC4)cc12 [Compound 10]
HCV IRES subdomain IIa [1]; [8]
  EC50: ≥ 0.5 mM
HCV IRES subdomain IIa [1]; Cy3 emission at 535 nm
  Cy3-emission change in FRET assay, in words: no increase of Cy3-emission
HCV IRES subdomain IIa [1]
  FRET-signal change / conformational change of HCV IRES subdomain IIa, in words: signals in the FRET assay
HCV IRES subdomain IIa [6]; [9]
  MST KD: n.b.

## CCOc1ccc2c(C)nc(NC(=N)NC)nc2c1 [Compound 8]
HCV IRES subdomain IIa [1]; [8]
  EC50: 0.413 ± 0.097 mM
HCV IRES subdomain IIa [6]; [9]
  Kd: ≥ 440 µM

## Cc1cc2nc3ccc(N(C)C)cc3nc2cc1N [Compound 1]
HCV IRES
  IC50 (Fluci reporter gene assay): 0.02 µg/mL (≈ 0.0793 µM)

## CNC(=N)Nc1nc(C)c2ccc(OC)cc2n1 [Compound 8b]
HCV IRES subdomain IIa [1]; [8]
  EC50: 0.061 ± 0.019 mM
HCV IRES subdomain IIa [6]
  lipophilic ligand efficiency LLE: 2.9
HCV IRES subdomain IIa [6]; [9]
  Kd: 88 ± 2 µM

## NC1=NC(c2ccccc2)n2c(nc3ccccc32)N1 (centres unmarked) [Compound 22]
HCV IRES subdomain IIa [1]
  FRET-signal change / conformational change of HCV IRES subdomain IIa, in words: no large changes in FRET-signals; also recorded: no changes in the FRET-assay

## CCOc1ccc2c(C)nc(NC(=N)N)nc2c1 [Compound 8a]
HCV IRES subdomain IIa [1]; [8]
  EC50: 0.088 ± 0.012 mM
HCV IRES subdomain IIa [6]; [9]
  Kd: 189 ± 20 µM
